Consider six compounds from patent publication US7446107B2, “Crystalline forms of conazoles and methods of making and using the same” (Transform Pharmaceuticals, Inc., priority 2002, dated 2008).

The conditions of data set [1]: cited from earlier work.
Data set [2] is described as follows: Solubility in pH 1 buffer (HPLC-UV). Type of data set: physicochemical.
Description: Beginning with the longest time point, pH 1 buffer (1 N HCl adjusted to pH 1 using 1 N NaOH) was added to each of the wells containing samples until completion of the shortest time points. The samples were vigorously stirred throughout the experiment. At the end of the assay, the solution and solid states of all the samples were separated by centrifugation in a polyvinylidene fluoride 96-well filter plate for 2 minutes at 500 xg.
Approximately 30 μl of solution was collected from the solution state of each sample and diluted in 120 μl of methanol in glass vials. Aluminum caps were crimped on the vial tops to prevent evaporation of methanol.
Data set [3] is described as follows: Hygroscopicity determination (humidity chambers). The note with it: 75% relative humidity, 25° C., 8 hours. Type of data set: physicochemical. Here is the method:
The hygroscopicity profiles for a sample from each of vials 1-5, as well as cis-itraconazole free base, were determined by exposing a sample from each of vials 1-5 to four different environments of varying relative humidity (namely, 0%, 30%, 57%, and 75%), and incubating the samples in that environment for about 8 hours at room temperature (20-25° C.). The humidity chambers consisted of desiccators with desiccants/salt baths in the bottom, above which the open vials containing samples were suspended.
The relative hygroscopicity of each sample was determined using methods well known to one skilled in the pharmaceutical arts as reported in “Pharmaceutical Preformulation & Formulation: A Practical Guide From Candidate Drug Selection to Commercial Dosage Form,” Ed. Mark Gibson, published by IHS Health Group Co, p. 49 (2001), which is incorporated herein by reference in its entirety.

The nature of data set [4]: Physical form after incubation in pH 1 buffer (PXRD). It is filed as physicochemical. The settings on record: 2 hours, room temperature. Here is the method:
70 μl of pH 1 buffer (1 N HCl adjusted to pH 1 using 1 N NaOH) was added to the same well. The sample was incubated at room temperature with vigorous mixing for 2 hours. At the end of the assay, the 384 well plate was centrifuged for 2 minutes at 500 xg and the supernatant was removed by aspiration.
The remaining solid state was analyzed by X-ray powder diffraction in a borosilicate tube, but otherwise using the same equipment, software, procedures, and parameters described in Example 1.

Data set [5] in a line: Solubility in THF (observation during synthesis). Type of data set: physicochemical. The note with it: up to 70° C. The text has this:
Thereafter, the vials were removed from the oven, the caps from all the bottles were removed, and the samples were allowed to evaporate in air under ambient conditions. Once significant amounts of solids were present in a sample, the remaining liquid in the sample was removed by pipetting out the liquid phase and using suction filtration with Whatman filter paper to rescue any solid that may have been dispersed in the liquid phase. The remaining solid in the liquid phase and the filtrate were dried in the vacuum oven (VWR Scientific, Model # 1400E) under vacuum for at least 12 hours. With regard to vial 3, the solid crashed out of solution as soon as the acid was added and never went into solution even at 70° C.; however, the solid in the sample was harvested in the same manner as the other samples.

`CCC(C)n1ncn(-c2ccc(N3CCN(c4ccc(OC[C@H]5CO[C@](Cn6cncn6)(c6ccc(Cl)cc6Cl)O5)cc4)CC3)cc2)c1=O` (mixture of isomers) [cis-itraconazole free base, (±)cis-4-[4-[4-[4-[[2-(2,4-dichlorophenyl)-2-(1H-1,2,4-triazol-1-ylmethyl)-1,3-dioxolan-4-yl]methoxy]phenyl]-1-piperazinyl]phenyl]-2,4-dihydro-2-(1-methylpropyl)-3H-1,2,4-triazol-3-one, reference compound]: the solubility in water result in data set [1] is on record as “only very sparingly soluble in water”. In addition, the “change of solubility with time” value in data set [2] (measured period up to 120 minutes) is on record as “did not change over the measured period of time”.
As for `CCC(C)n1ncn(-c2ccc(N3CCN(c4ccc(OCC5COC(Cn6cncn6)(c6ccc(Cl)cc6Cl)O5)cc4)CC3)cc2)c1=O.O=S(=O)(O)c1ccccc1` (stereo not drawn) [cis-itraconazole benzensulfonate], the relative hygroscopicity result in data set [3] was “hygroscopic (greater than 2% and less than 15% weight loss after incubation in 75% relative humidity at 25 °C for 8 hours)”.
On to `CCC(C)n1ncn(-c2ccc(N3CCN(c4ccc(OCC5COC(Cn6cncn6)(c6ccc(Cl)cc6Cl)O5)cc4)CC3)cc2)c1=O.O=C(O)C=CC(=O)O` (stereo not drawn) [cis-itraconazole fumaric acid co-crystal], for which the “solubility relative to free base” value in data set [2] (15 minutes) is “at least 4 fold”; in data set [2] (4 hours), “approximately 1.5 fold”. In addition, the “solid state form after incubation” value in data set [4] was “did not change form”. Besides, in data set [3], the relative hygroscopicity entry is “slightly hygroscopic (greater than 0.2% and less than 2% weight loss after incubation in 75% relative humidity at 25 °C for 8 hours)”.
Consider `CCC(C)n1ncn(-c2ccc(N3CCN(c4ccc(OCC5COC(Cn6cncn6)(c6ccc(Cl)cc6Cl)O5)cc4)CC3)cc2)c1=O.O=S(=O)(O)O` (stereo not drawn) [cis-itraconazole sulfate], for which the “solubility in THF” value in data set [5] was “insoluble or only slightly soluble in THF”. Moreover, the relative hygroscopicity result in data set [3] is “hygroscopic (greater than 2% and less than 15% weight loss after incubation in 75% relative humidity at 25 °C for 8 hours)”.
`CCC(C)n1ncn(-c2ccc(N3CCN(c4ccc(OCC5COC(Cn6cncn6)(c6ccc(Cl)cc6Cl)O5)cc4)CC3)cc2)c1=O.O=P(O)(O)O` (stereo not drawn) [cis-itraconazole phosphate]: the relative hygroscopicity result in data set [3] is “slightly hygroscopic (greater than 0.2% and less than 2% weight loss after incubation in 75% relative humidity at 25 °C for 8 hours)”.
The same measure, in the same setting: the result for `CCC(C)n1ncn(-c2ccc(N3CCN(c4ccc(OCC5COC(Cn6cncn6)(c6ccc(Cl)cc6Cl)O5)cc4)CC3)cc2)c1=O.O=C(O)C(O)C(O)C(=O)O` (racemic) [cis-itraconazole DL-tartrate] reads “slightly hygroscopic (greater than 0.2% and less than 2% weight loss after incubation in 75% relative humidity at 25 °C for 8 hours)”.
